Holding throughout (type): biochemical
Experiment [1] addresses T1, PI3Kδ kinase (Homo sapiens, UniProt O00329).
T1 construct: purchased Reaction Biology Corporation (assay service)
As to the kind of experiment: PI3Kδ kinase assay (ADP-Glo, Reaction Biology). In short, it runs like this:
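Kinase in Tris-HCl 40 mM pH 7.5, MgCl2 20 mM, orthovanadate 3 mM, DTT 2 mM, 0.05% CHAPS, 1% DMSO, preincubated 10 min at room temperature with compound (about 0.5 nM–100 μM). ATP started a 30-min reaction at 30 °C. ADP-Glo luminescence converted to μM ADP via standard curve; IC50 from nonlinear regression.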

Experiment [2] addresses T2, CDK6 (Homo sapiens, UniProt Q00534).
T2 construct: purchased Invitrogen PR8422B
The experiment in a line: In vitro kinase inhibition IC50, luminescence (ADP Glo), retinoblastoma substrate. The conditions noted are these: read-out: CDK6/D1 IC50. In short, it runs like this: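 IC50 derived by four-parameter logistic fit of percent inhibition, read as ADP-Glo luminescence. Reactions: 5 nM CDK6, 1 μM retinoblastoma, 25 μM ATP, test compound 0.1–200 nM final, 2 h at room temperature.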

The target of experiment [3] is T3, CDK4 (Homo sapiens, UniProt P11802).
T3 construct: purchased Invitrogen PR8064A
T3 sequence (P11802 whole entry): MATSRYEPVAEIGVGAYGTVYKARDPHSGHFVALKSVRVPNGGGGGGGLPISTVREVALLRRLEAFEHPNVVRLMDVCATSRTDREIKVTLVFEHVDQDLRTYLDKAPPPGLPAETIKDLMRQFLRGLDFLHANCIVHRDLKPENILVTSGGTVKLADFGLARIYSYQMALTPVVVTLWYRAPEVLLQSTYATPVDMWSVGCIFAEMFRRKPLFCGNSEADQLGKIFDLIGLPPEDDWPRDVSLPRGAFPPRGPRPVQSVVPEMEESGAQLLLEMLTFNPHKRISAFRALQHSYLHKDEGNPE
T3 sequence (P24385 whole entry partner): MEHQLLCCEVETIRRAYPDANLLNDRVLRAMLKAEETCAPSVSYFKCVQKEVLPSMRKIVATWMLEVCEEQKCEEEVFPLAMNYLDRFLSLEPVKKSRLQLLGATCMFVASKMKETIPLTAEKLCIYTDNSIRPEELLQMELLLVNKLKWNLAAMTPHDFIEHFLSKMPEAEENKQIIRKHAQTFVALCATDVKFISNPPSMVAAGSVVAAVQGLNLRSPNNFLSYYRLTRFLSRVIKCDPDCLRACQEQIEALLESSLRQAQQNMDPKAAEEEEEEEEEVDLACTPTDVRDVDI
Described as above. The conditions noted are these: read-out: CDK4/D1 IC50. The gist of the method: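 Inhibition of CDK4 was quantified by ADP Glo luminescence with retinoblastoma as substrate. Reactions held 5 nM kinase, 1 μM retinoblastoma and 25 μM ATP and ran 2H at room temperature. A Synergy Neo reader took signals 15 min and 45 min after detection reagent, and percent inhibition was fitted to a four-parameter logistic model in XLfit to obtain IC50.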

Experiment [4] deals with T4, FMS kinase (Homo sapiens, UniProt P07333).
T4 construct: purchased Invitrogen (Life Technologies)
T4 sequence (P07333 20-972): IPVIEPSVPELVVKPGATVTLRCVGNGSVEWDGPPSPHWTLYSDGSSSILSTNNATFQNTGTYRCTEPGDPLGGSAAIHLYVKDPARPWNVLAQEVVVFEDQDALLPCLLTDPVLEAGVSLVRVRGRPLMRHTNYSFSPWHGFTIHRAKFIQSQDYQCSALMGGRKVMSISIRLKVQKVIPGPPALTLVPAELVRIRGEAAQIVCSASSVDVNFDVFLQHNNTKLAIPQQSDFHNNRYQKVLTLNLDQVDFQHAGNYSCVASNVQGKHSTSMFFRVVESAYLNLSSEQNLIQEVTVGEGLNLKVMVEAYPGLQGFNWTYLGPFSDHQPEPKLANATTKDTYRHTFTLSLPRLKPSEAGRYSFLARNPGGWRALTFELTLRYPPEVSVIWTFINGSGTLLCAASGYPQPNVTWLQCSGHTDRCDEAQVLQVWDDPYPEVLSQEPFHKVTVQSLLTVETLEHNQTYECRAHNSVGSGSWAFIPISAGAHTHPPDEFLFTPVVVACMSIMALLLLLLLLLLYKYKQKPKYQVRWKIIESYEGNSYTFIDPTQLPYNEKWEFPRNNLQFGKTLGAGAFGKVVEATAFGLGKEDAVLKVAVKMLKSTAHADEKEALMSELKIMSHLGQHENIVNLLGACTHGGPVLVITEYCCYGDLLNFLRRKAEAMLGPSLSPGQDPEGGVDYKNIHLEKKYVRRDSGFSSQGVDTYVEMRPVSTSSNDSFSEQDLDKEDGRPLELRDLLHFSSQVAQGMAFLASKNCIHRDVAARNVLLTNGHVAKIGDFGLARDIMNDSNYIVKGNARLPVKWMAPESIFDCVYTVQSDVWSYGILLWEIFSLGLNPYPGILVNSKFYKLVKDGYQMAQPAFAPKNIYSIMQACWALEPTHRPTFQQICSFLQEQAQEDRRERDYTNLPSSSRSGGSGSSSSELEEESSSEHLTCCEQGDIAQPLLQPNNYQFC
As to the kind of experiment: LanthaScreen Eu Kinase Binding Assay (ATP, fluorescent-PolyGT substrate). The gist of the method: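 TR-FRET read (ex 340, em 495 and 520 nm) after EDTA/Tb-labelled antibody stop; IC50 by four-parameter logistic fit of percent inhibition. Reaction: 1.25 nM FMS, 10 min compound preincubation (3-fold series), then 1 h at room temperature with 10 μM ATP and 200 nM fluorescent PolyGT.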

Experiment [5] has as its target T5, CDK2 (cyclin A) (Homo sapiens, UniProt P24941).
T5 construct: purchased Invitrogen Life Technologies (assay service)
The experiment in a line: Z'-LYTE kinase assay. In short, it runs like this: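 FRET-based Z′-LYTE read-out using 1.22–10.3 ng CDK2/cyclin A with Ser/Thr 12 peptide (2 μM in the 2× mix) and ATP (31 μM as the 4× solution), in HEPES pH 7.5, MgCl2, EGTA and BRIJ-35, for 60 min at room temperature. After 1 h of development, the 445/520 nm emission was read, and percent inhibition was fitted to a four-parameter logistic curve for IC50.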

Experiment [6] addresses T6, CDK1 (cyclin B) (Homo sapiens, UniProt P06493).
T6 construct: purchased Invitrogen Life Technologies (assay service)
The experiment in a line: Z'-LYTE kinase assay. How it is done: The plates were shaken for 30 seconds, and incubated for 60 minutes at room temperature. […] The plates were read on fluorescence plate reader with Dual emission at 445 nm and 520 nm.
The following equations were used for Z′-LYTE™ Screening Assay Data Analysis.

Like-named read-outs stand apart in the source and are kept apart here.

T2 sequence (Q00534 whole entry): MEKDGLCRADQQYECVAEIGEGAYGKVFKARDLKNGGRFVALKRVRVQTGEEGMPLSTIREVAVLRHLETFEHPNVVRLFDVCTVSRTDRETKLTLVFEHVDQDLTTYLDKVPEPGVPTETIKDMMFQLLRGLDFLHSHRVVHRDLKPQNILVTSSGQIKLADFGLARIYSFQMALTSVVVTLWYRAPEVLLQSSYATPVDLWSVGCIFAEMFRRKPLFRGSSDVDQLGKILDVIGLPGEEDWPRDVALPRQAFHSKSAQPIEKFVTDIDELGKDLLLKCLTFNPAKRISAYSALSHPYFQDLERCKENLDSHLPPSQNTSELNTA
T2 sequence (P24385 whole entry partner): as the sequence (P24385 whole entry partner) above
T1 sequence (O00329 whole entry): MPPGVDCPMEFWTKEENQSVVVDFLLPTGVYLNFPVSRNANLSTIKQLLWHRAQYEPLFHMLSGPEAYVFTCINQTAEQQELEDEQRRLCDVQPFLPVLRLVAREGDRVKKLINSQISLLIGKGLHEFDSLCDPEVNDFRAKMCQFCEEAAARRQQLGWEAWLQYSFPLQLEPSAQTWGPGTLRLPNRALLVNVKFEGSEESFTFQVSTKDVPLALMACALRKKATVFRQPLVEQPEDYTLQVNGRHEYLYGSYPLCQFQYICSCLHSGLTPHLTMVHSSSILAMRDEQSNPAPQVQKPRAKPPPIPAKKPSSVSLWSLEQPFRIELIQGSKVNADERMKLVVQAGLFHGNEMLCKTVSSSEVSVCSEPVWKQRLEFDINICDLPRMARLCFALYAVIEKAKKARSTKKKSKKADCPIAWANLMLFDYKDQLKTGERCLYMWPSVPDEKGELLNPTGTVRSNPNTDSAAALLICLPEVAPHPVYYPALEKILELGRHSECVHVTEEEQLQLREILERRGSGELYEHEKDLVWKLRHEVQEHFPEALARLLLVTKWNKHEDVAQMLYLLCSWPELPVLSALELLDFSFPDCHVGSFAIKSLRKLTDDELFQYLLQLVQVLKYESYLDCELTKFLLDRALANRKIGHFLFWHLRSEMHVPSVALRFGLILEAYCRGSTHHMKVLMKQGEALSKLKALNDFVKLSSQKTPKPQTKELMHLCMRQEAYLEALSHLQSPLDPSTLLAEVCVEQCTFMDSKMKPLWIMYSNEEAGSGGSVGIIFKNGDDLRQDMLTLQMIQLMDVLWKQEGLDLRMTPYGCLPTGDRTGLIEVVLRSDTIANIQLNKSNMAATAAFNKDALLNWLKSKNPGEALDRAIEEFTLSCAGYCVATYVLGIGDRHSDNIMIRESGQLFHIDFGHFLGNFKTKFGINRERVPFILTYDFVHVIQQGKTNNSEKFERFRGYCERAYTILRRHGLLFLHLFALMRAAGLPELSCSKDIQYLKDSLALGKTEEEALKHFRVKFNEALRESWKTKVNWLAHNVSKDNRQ
T1 sequence (P27986 whole entry partner): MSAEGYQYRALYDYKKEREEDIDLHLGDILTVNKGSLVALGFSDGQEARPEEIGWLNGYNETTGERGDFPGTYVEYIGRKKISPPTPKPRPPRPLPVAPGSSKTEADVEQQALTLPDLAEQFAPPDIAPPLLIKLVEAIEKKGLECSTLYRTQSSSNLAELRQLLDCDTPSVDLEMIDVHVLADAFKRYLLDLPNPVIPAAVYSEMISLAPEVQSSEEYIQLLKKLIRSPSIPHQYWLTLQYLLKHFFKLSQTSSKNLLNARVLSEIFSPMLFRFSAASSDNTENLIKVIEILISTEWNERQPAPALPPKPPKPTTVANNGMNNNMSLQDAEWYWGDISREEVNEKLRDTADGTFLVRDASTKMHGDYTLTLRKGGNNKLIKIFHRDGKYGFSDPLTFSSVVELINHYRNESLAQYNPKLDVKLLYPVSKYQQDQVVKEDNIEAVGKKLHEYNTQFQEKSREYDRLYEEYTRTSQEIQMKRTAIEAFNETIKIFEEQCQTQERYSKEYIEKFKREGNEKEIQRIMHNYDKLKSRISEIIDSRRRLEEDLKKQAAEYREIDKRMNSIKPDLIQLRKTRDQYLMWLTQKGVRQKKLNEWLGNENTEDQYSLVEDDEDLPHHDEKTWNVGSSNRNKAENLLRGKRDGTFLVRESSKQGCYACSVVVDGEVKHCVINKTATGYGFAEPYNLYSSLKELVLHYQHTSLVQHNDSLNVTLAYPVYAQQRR
T6 sequence (P06493 whole entry): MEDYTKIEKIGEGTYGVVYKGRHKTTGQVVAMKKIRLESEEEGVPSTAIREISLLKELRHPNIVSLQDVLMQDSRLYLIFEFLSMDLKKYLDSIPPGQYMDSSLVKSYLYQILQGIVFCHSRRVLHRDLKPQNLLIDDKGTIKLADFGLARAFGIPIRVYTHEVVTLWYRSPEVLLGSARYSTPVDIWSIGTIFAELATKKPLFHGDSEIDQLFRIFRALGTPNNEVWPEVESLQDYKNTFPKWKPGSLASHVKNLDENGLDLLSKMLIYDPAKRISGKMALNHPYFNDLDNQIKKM
T6 sequence (P14635 whole entry partner): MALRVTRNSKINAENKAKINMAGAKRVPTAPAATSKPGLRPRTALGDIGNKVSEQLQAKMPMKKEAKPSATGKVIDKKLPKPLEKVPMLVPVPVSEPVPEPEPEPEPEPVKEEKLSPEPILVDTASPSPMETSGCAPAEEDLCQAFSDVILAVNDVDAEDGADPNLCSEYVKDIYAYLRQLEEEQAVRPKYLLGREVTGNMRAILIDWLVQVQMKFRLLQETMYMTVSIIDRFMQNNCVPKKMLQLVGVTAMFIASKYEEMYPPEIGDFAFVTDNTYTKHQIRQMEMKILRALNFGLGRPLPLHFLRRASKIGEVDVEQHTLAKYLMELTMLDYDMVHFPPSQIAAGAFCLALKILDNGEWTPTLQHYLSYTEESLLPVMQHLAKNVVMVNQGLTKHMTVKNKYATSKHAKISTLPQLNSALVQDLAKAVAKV

Consider `N#Cc1cc2cnc(Nc3ccc(N4CCNCC4)c(F)c3)nc2n(C2CCCC2)c1=O` [Compound No. 13, 8-cyclopentyl-2-((3-fluoro-4-(piperazin-1-yl)phenyl)amino)-7-oxo-7,8-dihydropyrido[2,3-d]pyrimidine-6-carbonitrile], for which the IC50 in experiment [1] is 561 nM; in experiment [2], 1.5 nM; in experiment [3], 3.5 nM; in experiment [4], less than 1 nM.
Take `N#Cc1cc2cnc(Nc3ccc4c(c3)CNCC4)nc2n(C2CCCC2)c1=O` [Compound No. 29, 8-cyclopentyl-7-oxo-2-((1,2,3,4-tetrahydroisoquinolin-7-yl)amino)-7,8-dihydropyrido[2,3-d]pyrimidine-6-carbonitrile]: the IC50 turned out to be 42 nM in experiment [5]; 552 nM in experiment [1]; 441 nM in experiment [6] (read-out: CDK1/B IC50); 13 nM in experiment [2]; 7 nM in experiment [3]; 2.5 nM in experiment [4].
`CS(=O)(=O)N1CCC(Nc2ncc3cc(C#N)c(=O)n(C4CC5CC5C4)c3n2)CC1` (stereo not drawn) [Compound No. 341, 8-(bicyclo[3.1.0]hexan-3-yl)-2-((1-(methylsulfonyl)piperidin-4-yl)amino)-7-oxo-7,8-dihydropyrido[2,3-d]pyrimidine-6-carbonitrile]: the IC50 in experiment [5] is 7 nM; in experiment [1], greater than 50000 nM; in experiment [6] (read-out: CDK1/B IC50), 197 nM; in experiment [2], 8.5 nM; in experiment [3] it was 3.5 nM; in experiment [4] it was 166 nM.
`N#Cc1cc2cnc(Nc3ccc4c(c3)CCNC4)nc2n(C2CC3CC3C2)c1=O` (stereo not drawn) [Compound No. 342, 8-(bicyclo[3.1.0]hexan-3-yl)-7-oxo-2-((1,2,3,4-tetrahydroisoquinolin-6-yl)amino)-7,8-dihydropyrido[2,3-d]pyrimidine-6-carbonitrile]: the IC50 in experiment [5] was 41 nM; in experiment [1], 421 nM; in experiment [6] (read-out: CDK1/B IC50) it was 439 nM; in experiment [2], 22 nM; in experiment [3] it was 10 nM; in experiment [4], less than 1 nM.
`N#Cc1cc2cnc(Nc3ccc4c(c3)CCNC4)nc2n(C2CCCC2)c1=O` [Compound No. 31, 8-cyclopentyl-7-oxo-2-((1,2,3,4-tetrahydroisoquinolin-6-yl)amino)-7,8-dihydropyrido[2,3-d]pyrimidine-6-carbonitrile]: the IC50 turned out to be 32 nM in experiment [5]; 128 nM in experiment [1]; 481 nM in experiment [6] (read-out: CDK1/B IC50); 9 nM in experiment [2]; 5 nM in experiment [3]; 1 nM in experiment [4].
For `CS(=O)(=O)N1CCC(Nc2ncc3cc(C#N)c(=O)n(C4CCC(F)(F)C4)c3n2)CC1` (racemic) [Compound No. 345, 8-(3,3-difluorocyclopentyl)-2-((1-(methylsulfonyl)piperidin-4-yl)amino)-7-oxo-7,8-dihydropyrido[2,3-d]pyrimidine-6-carbonitrile], the IC50 in experiment [5] is 30 nM; in experiment [1], greater than 50000 nM; in experiment [6], 1110 nM; in experiment [2], 55 nM; in experiment [3], 40 nM; in experiment [4], 674 nM.
Regarding `CS(=O)(=O)N1CCC(Nc2ncc3cc(C#N)c(=O)n(C4CCCC4)c3n2)CC1` [Compound No. 93, 8-cyclopentyl-2-((1-(methylsulfonyl)piperidin-4-yl)amino)-7-oxo-7,8-dihydropyrido[2,3-d]pyrimidine-6-carbonitrile], the IC50 in experiment [5] is 2.5 nM; in experiment [1] it was 12100 nM; in experiment [6] it was 53 nM; in experiment [2] it was 4 nM; in experiment [3] it was 2.6 nM.

The values are drawn from patent US20220273659A1, “HETEROCYCLIC COMPOUNDS AS KINASE INHIBITORS” (NUVATION BIO INC., priority 2019, published 2022).
